Laboratory results as given in patent US20140228287A1, “1-[(3-CYANO-PYRIDIN-2-YL)METHYL]-3-METHYL-7-(2-BUTYN-1-YL)-8-[3-(R)-AMINO-PIPERIDIN-1-YL]-AXANTHINE FOR THE TREATMENT OF A METABOLIC DISORDER OF A PREDOMINANTLY CARNIVOROUS NON-HUMAN ANIMAL” (BOEHRINGER INGELHEIM VETMEDICA GMBH, priority 2010, published 2014).
Counter-ions that a name gives are not always drawn. Like-named read-outs stand apart in the source and are kept apart here.

Assays:
GLP-1 = assay: Single dose study (1.0/5.0/10.0 mg/kg) in cats: GLP-1 after feeding; format: in vivo, cat; details: single oral 1, 5, 10 mg/kg; feeding at 8 h after treatment
Description: Twelve clinically healthy male adult domestic short hair cats with a body weight range of 3.5-4.7 kg were used in this study. All animals were treated orally once via a stomach tube. Blood samples for pharmacokinetic and pharmacodynamic (DPP IV activity) investigations were drawn at 0 h (i.e. prior to treatment), 30 min as well as 1, 2, 4, 8, 8.5, 9, 12, 24, 36, 48, 72, 84 and 96 h after treatment. Blood samples for pharmacodynamic (glucagon-like peptide 1 concentrations) investigations were drawn at −16 (i.e. prior to feeding), −15.5, −15 h as well as at 8 h (i.e. prior to feeding), 8.5 and 9 h after treatment.

alanine-amino-peptidase = alanine-amino-peptidase (Homo sapiens, UniProt P15144); assay: In vitro selectivity, human proteases: alanine-amino-peptidase; format: biochemical; details: up to 100 μM
Chain of alanine-amino-peptidase (P15144 whole entry): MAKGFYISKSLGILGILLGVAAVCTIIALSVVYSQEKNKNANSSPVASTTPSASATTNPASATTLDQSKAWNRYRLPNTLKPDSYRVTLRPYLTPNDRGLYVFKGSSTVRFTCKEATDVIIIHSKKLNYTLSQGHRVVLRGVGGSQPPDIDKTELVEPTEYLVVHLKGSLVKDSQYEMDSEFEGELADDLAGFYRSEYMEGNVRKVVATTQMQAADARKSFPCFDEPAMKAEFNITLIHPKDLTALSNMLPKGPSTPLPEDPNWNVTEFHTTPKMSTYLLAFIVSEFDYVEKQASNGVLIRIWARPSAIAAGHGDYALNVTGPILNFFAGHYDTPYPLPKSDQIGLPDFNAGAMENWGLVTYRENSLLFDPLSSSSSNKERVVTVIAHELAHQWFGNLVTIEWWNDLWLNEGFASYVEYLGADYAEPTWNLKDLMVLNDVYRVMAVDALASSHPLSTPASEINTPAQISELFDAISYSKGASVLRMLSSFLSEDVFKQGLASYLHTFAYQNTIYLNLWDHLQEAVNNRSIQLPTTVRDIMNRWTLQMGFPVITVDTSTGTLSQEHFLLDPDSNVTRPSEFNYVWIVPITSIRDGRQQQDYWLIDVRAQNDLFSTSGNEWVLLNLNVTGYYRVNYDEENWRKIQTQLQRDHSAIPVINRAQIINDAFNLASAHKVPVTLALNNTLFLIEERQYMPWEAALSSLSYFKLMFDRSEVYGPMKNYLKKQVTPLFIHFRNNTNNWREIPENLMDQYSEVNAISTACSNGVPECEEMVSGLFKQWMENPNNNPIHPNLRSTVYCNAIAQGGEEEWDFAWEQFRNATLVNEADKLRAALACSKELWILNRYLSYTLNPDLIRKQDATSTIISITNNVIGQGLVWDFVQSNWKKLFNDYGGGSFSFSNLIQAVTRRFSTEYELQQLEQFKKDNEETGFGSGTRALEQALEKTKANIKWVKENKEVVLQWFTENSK
Excerpt: (§1) In order to determine the in vitro selectivity of 1-[(3-cyano-pyridin-2-yl)methyl]-3-methyl-7-(2-butyn-1-yl)-8-[3-(R)-amino-piperidin-1-yl]-xanthine, the ability of this compound to inhibit a number of human proteases was investigated as described in Thomas et al. (2008), J. Pharmacol. Exp. Ther., vol. 325, p. 175-182, chapter In vitro DPP-4 Inhibition Assay, p. 176.

amino-peptidase P = assay: In vitro selectivity, human proteases: amino-peptidase P; format: biochemical; details: up to 100 μM
Excerpt: as §1

thrombin = thrombin (Homo sapiens, UniProt P00734); assay: In vitro selectivity, human proteases: thrombin; format: biochemical; details: up to 100 μM
Excerpt: as §1

[1] = test system: normoglycaemic C57B1/6J mice; assay: Oral glucose tolerance test (acute and delayed) in normoglycaemic mice; format: in vivo, mouse; details: for ED50: Mus musculus, po, read-out: ED50 for lowering the glucose AUC
Description: The effect of 1-[(3-cyano-pyridin-2-yl)methyl]-3-methyl-7-(2-butyn-1-yl)-8-[3-(R)-amino-piperidin-1-yl]-xanthine on glucose tolerance in normoglycaemic C57B1/6J mice was assessed according to the following protocol of an oral glucose tolerance test (OGTT).
Male C57B1/6J mice (C57BL/6J@Rj) were obtained from Janvier (France). Animals were fed ad libitum with a standard pelleted diet (Diet No. 3438 [containing 19% protein, 4.5% fat], Provimi Kliba, Switzerland) and had free access to water. Animals were individually housed with a 12 h/12 h light/dark cycle (lights out between 6 p.m. and 6 a.m.). The mice were used for the experiments at 9 weeks of age.
For the determination of the acute oral glucose tolerance test, a basal blood sample (pre-dose) was obtained in the morning from overnight fasted C57B1/6J mice (n=7 per group) by cutting the tip of the tail without anaesthesia. Subsequently, the groups received a single oral administration of either vehicle or 1-[(3-cyano-pyridin-2-yl)methyl]-3-methyl-7-(2-butyn-1-yl)-8-[3-(R)-amino-piperidin-1-yl]-xanthine monohydrochloride at doses between 0.1 and 10 mg/kg bw, followed 45 min later by an oral administration of a glucose solution (2 g/kg bw, application volume 10 ml/kg bw). Additional blood samples were taken from the tip of the tail 30 min, 60 min, 90 min, 120 min, and 180 min after the glucose load, and blood glucose was measured. A final blood sample was drawn from the retrobulbal venous plexus under isoflurane anaesthesia 30 minutes after the last bleeding from the tail. EDTA plasma was prepared from this blood sample and frozen for determination of DPP-IV activity.
For the determination of the delayed oral glucose tolerance test, C57B1/6J mice (n=5 per group) were orally administered with either vehicle or 1-[(3-cyano-pyridin-2-yl)methyl]-3-methyl-7-(2-butyn-1-yl)-8-[3-(R)-amino-piperidin-1-yl]-xanthine monohydrochloride at doses between 0.1 and 10 mg/kg bw in the afternoon before the oral glucose tolerance test. […] Additional blood samples were taken from the tip of the tail 30 min, 60 min, 90 min, 120 min, and 180 min after the glucose load, and blood glucose was measured. […]
The two-sided unpaired Student t-test was used for statistical comparison of the control group and the active groups with the 5% level as the limit of statistical significance (*, P <0.05; **, P<0.01; ***, P<0.001). […] Changes from baseline (pre-dose value) within each group were analyzed by a paired Student t-test.
The area under the curve (AUC) for the time course of blood glucose concentrations during an OGTT was calculated by the trapezoidal rule after correction for the baseline values.
ED50 values were calculated by nonlinear regression analysis with a Hill coefficient of 1. […]

trypsin = assay: In vitro selectivity, human proteases: trypsin; format: biochemical; details: up to 100 μM
Excerpt: as §1

Compound: CC#CCn1c(N2CCC[C@@H](N)C2)nc2c1c(=O)n(Cc1ncccc1C#N)c(=O)n2C [1-[(3-cyano-pyridin-2-yl)methyl]-3-methyl-7-(2-butyn-1-yl)-8-[3-(R)-amino-piperidin-1-yl]-xanthine monohydrochloride]
- mean GLP-1 concentration after feeding (GLP-1): an increase of the mean GLP-1 concentration was observed after feeding
- inhibitory effect on alanine-amino-peptidase (alanine-amino-peptidase): did not exert any inhibitory effect
- inhibitory effect on amino-peptidase P (amino-peptidase P): did not exert any inhibitory effect
- inhibitory effect on thrombin (thrombin): did not exert any inhibitory effect
- reduction of AUC for glucose excursion in OGTT ([1]; 1 mg/kg 16 hours before OGTT (delayed setting)): 29%
- ED50 ([1]; acute setting): 0.2 mg/kg
- ED50 ([1]; delayed setting): 0.3 mg/kg
- suppression of AUC for glucose excursion in OGTT ([1]; acute dosing of 1 mg/kg): 38%
- inhibitory effect on trypsin (trypsin): did not exert any inhibitory effect
